# Experimental data reported in PubChem BioAssay (NCI).
#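 All cell lines were grown in 96-well plates and treated with compound for 48 hours. The concentration for 50% growth inhibition is given as GI50. Definition used: TGI = concentration required for complete inhibition of growth.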
# What was measured:
# Assay in all cases: NCI anticancer screen, dose series, 48 h
# [1] = test system: HT29 colon
# [2] = test system: U251 CNS
# [3] = test system: CAKI-1 renal
# [4] = test system: SF-539 CNS
# [5] = test system: RXF 393 renal
# [6] = test system: HCT-15 colon
# [7] = test system: T-47D breast
# [8] = test system: SK-MEL-5 melanoma
# [9] = test system: MCF7 breast
# [10] = test system: IGROV1 ovarian
# [11] = test system: M14 melanoma
# [12] = test system: HCT-116 colon
# [13] = test system: OVCAR-3 ovarian
# [14] = test system: OVCAR-8 ovarian
# [15] = test system: NCI-H226 lung
# [16] = test system: MDA-MB-435
# [17] = test system: NCI-H23 lung
# [18] = test system: BT-549 breast
# [19] = test system: HS 578T breast
# [20] = test system: SN12C renal
# [21] = test system: OVCAR-5 ovarian
# [22] = test system: SK-MEL-2 melanoma
# [23] = test system: NCI-H522 lung
# [24] = test system: A549 NSCLC
# [25] = test system: A498 renal
# [26] = test system: COLO 205 colon
# [27] = test system: HOP-62 NSCLC
# [28] = test system: SNB-19 CNS
# [29] = test system: SNB-75 CNS
# [30] = test system: RPMI-8226 leukemia
# [31] = test system: HOP-92 NSCLC
# [32] = test system: UO-31 renal
# [33] = test system: ACHN renal
# [34] = test system: CCRF-CEM leukemia
# [35] = test system: SK-MEL-28 melanoma
# [36] = test system: NCI-H460 lung
# [37] = test system: MOLT-4 leukemia
# [38] = test system: EKVX NSCLC
# [39] = test system: SW-620 colon
# [40] = test system: MALME-3M melanoma
# [41] = test system: KM12 colon
# [42] = test system: LOX IMVI melanoma
# [43] = test system: SK-OV-3 ovarian
# [44] = test system: SF-268 CNS
# [45] = test system: UACC-62 melanoma
# [46] = test system: UACC-257 melanoma
# [47] = test system: DU-145 prostate
# [48] = test system: HCC-2998 colon
# [49] = test system: OVCAR-4 ovarian
# [50] = test system: NCI/ADR-RES ovarian
# [51] = test system: PC-3 prostate
# [52] = test system: TK-10 renal
# [53] = test system: SF-295 CNS
# [54] = test system: 786-0 renal
# [55] = test system: MDA-MB-231 breast
smiles,measurement,setting,value
COc1cc2c(cc1OCc1ccccc1)N=CC1C[C@@H](O)CN1C2=O (stereo not given in full),GI50,[1],7.22 µM
same,TGI,[1],> 100 µM
same,GI50,[2],2.86 µM
same,TGI,[2],> 100 µM
same,GI50,[3],1.24 µM
same,TGI,[3],6.78 µM
same,GI50,[4],2.11 µM
same,TGI,[4],6.76 µM
same,GI50,[5],1.7 µM
same,TGI,[5],4.95 µM
same,GI50,[6],15.2 µM
same,TGI,[6],> 82.1 µM
same,GI50,[7],1.95 µM
same,TGI,[7],7.09 µM
same,GI50,[8],2.53 µM
same,TGI,[8],5.38 µM
same,GI50,[9],5.06 µM
same,TGI,[9],> 100 µM
same,GI50,[10],6.89 µM
same,TGI,[10],> 60.7 µM
same,GI50,[11],4.71 µM
same,TGI,[11],19.5 µM
same,GI50,[12],9.77 µM
same,TGI,[12],42.2 µM
same,GI50,[13],2.64 µM
same,TGI,[13],18.2 µM
same,GI50,[14],8.35 µM
same,TGI,[14],> 74.8 µM
same,GI50,[15],23.6 µM
same,TGI,[15],> 100 µM
same,GI50,[16],3.88 µM
same,TGI,[16],14.7 µM
same,GI50,[17],7.83 µM
same,TGI,[17],25.3 µM
same,GI50,[18],2.47 µM
same,TGI,[18],9.54 µM
same,GI50,[19],4.84 µM
same,TGI,[19],18.6 µM
same,GI50,[20],5.77 µM
same,TGI,[20],24.2 µM
same,GI50,[21],3.37 µM
same,TGI,[21],> 25.3 µM
same,GI50,[22],3.08 µM
same,TGI,[22],9.19 µM
same,GI50,[23],1.4 µM
same,TGI,[23],7.43 µM
same,GI50,[24],19.2 µM
same,TGI,[24],> 100 µM
same,GI50,[25],2.06 µM
same,TGI,[25],5.25 µM
same,GI50,[26],3.77 µM
same,TGI,[26],> 30.9 µM
same,GI50,[27],2.4 µM
same,TGI,[27],9.52 µM
same,GI50,[28],6.52 µM
same,TGI,[28],> 100 µM
same,GI50,[29],9.08 µM
same,TGI,[29],47 µM
same,GI50,[30],2.57 µM
same,TGI,[30],> 28 µM
same,GI50,[31],3.99 µM
same,TGI,[31],39 µM
same,GI50,[32],3.52 µM
same,TGI,[32],19.2 µM
same,GI50,[33],5.83 µM
same,TGI,[33],50 µM
same,GI50,[34],1.79 µM
same,TGI,[34],12.2 µM
same,GI50,[35],8.23 µM
same,TGI,[35],28.4 µM
same,GI50,[36],10.7 µM
same,TGI,[36],> 100 µM
same,GI50,[37],2.01 µM
same,TGI,[37],5.51 µM
same,GI50,[38],24.2 µM
same,TGI,[38],56.4 µM
same,GI50,[39],3.16 µM
same,TGI,[39],31.3 µM
same,GI50,[40],9.08 µM
same,TGI,[40],26 µM
same,GI50,[41],4.04 µM
same,TGI,[41],32 µM
same,GI50,[42],2.37 µM
same,TGI,[42],6.5 µM
same,GI50,[43],17.5 µM
same,TGI,[43],> 71.5 µM
same,GI50,[44],3.41 µM
same,TGI,[44],26.7 µM
same,GI50,[45],0.824 µM
same,TGI,[45],17.1 µM
same,GI50,[46],19.2 µM
same,TGI,[46],> 59.6 µM
same,GI50,[47],4.04 µM
same,TGI,[47],72.1 µM
same,GI50,[48],17.1 µM
same,TGI,[48],37.1 µM
same,GI50,[49],12.4 µM
same,TGI,[49],> 73.5 µM
same,GI50,[50],14.7 µM
same,TGI,[50],> 56.7 µM
same,GI50,[51],23.1 µM
same,TGI,[51],> 100 µM
same,GI50,[52],2.37 µM
same,TGI,[52],12.7 µM
same,GI50,[53],4.62 µM
same,TGI,[53],> 71.5 µM
same,GI50,[54],2.26 µM
same,TGI,[54],7.68 µM
same,GI50,[55],3.01 µM
same,TGI,[55],16.9 µM
